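Values below derive from 48-hour exposures of cells grown in 96-well plates, with endpoints linearly interpolated between the two concentrations bracketing the appropriate inhibition level. GI50: concentration for 50% inhibition of growth. TGI denotes the concentration required for complete inhibition of growth.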
Columns and labels:
Assay in all cases: inhibition of tumour cell growth, NCI panel, 48 h
MDA-MB-231 breast = system: MDA-MB-231 breast
SNB-75 CNS = system: SNB-75 CNS
HCC-2998 colon = system: HCC-2998 colon
ACHN renal = system: ACHN renal
UACC-62 melanoma = system: UACC-62 melanoma
KM12 colon = system: KM12 colon
UO-31 renal = system: UO-31 renal
SF-539 CNS = system: SF-539 CNS
TK-10 renal = system: TK-10 renal
HL-60(TB) leukemia = system: HL-60(TB) leukemia
A549 NSCLC = system: A549 NSCLC
OVCAR-5 ovarian = system: OVCAR-5 ovarian
SK-OV-3 ovarian = system: SK-OV-3 ovarian
RPMI-8226 leukemia = system: RPMI-8226 leukemia
CAKI-1 renal = system: CAKI-1 renal
HS 578T breast = system: HS 578T breast
SW-620 colon = system: SW-620 colon
NCI-H23 lung = system: NCI-H23 lung
SN12C renal = system: SN12C renal
HOP-92 NSCLC = system: HOP-92 NSCLC
U251 CNS = system: U251 CNS
786-0 renal = system: 786-0 renal
CCRF-CEM leukemia = system: CCRF-CEM leukemia
MOLT-4 leukemia = system: MOLT-4 leukemia
HOP-62 NSCLC = system: HOP-62 NSCLC
OVCAR-3 ovarian = system: OVCAR-3 ovarian
NCI-H460 lung = system: NCI-H460 lung
MCF7 breast = system: MCF7 breast
OVCAR-8 ovarian = system: OVCAR-8 ovarian
NCI-H522 lung = system: NCI-H522 lung
LOX IMVI melanoma = system: LOX IMVI melanoma
M14 melanoma = system: M14 melanoma
NCI-H226 lung = system: NCI-H226 lung
HT29 colon = system: HT29 colon
DU-145 prostate = system: DU-145 prostate
HCT-15 colon = system: HCT-15 colon
MALME-3M melanoma = system: MALME-3M melanoma
SF-268 CNS = system: SF-268 CNS
SNB-19 CNS = system: SNB-19 CNS
SF-295 CNS = system: SF-295 CNS
SK-MEL-5 melanoma = system: SK-MEL-5 melanoma
MDA-MB-435 = system: MDA-MB-435
SR leukemia = system: SR leukemia
IGROV1 ovarian = system: IGROV1 ovarian
UACC-257 melanoma = system: UACC-257 melanoma
RXF 393 renal = system: RXF 393 renal
NCI/ADR-RES ovarian = system: NCI/ADR-RES ovarian
A498 renal = system: A498 renal
BT-549 breast = system: BT-549 breast
T-47D breast = system: T-47D breast
OVCAR-4 ovarian = system: OVCAR-4 ovarian
PC-3 prostate = system: PC-3 prostate
HCT-116 colon = system: HCT-116 colon
K-562 leukemia = system: K-562 leukemia
SK-MEL-28 melanoma = system: SK-MEL-28 melanoma
COLO 205 colon = system: COLO 205 colon

FC(F)(F)c1cccc(Nc2nc3ccccc3nc2Nc2cccc(C(F)(F)F)c2)c1
GI50 (MDA-MB-231 breast): 993 nM | TGI (MDA-MB-231 breast): 2730 nM | GI50 (SNB-75 CNS): 1150 nM | TGI (SNB-75 CNS): 6710 nM | GI50 (HCC-2998 colon): 2930 nM | TGI (HCC-2998 colon): 7450 nM | GI50 (ACHN renal): 415 nM | TGI (ACHN renal): 2230 nM | GI50 (UACC-62 melanoma): 1560 nM | TGI (UACC-62 melanoma): 5470 nM | GI50 (KM12 colon): 1990 nM | TGI (KM12 colon): 4950 nM | GI50 (UO-31 renal): 1980 nM | TGI (UO-31 renal): 11000 nM | GI50 (SF-539 CNS): 959 nM | TGI (SF-539 CNS): 3120 nM | GI50 (TK-10 renal): 1470 nM | TGI (TK-10 renal): 3800 nM | GI50 (HL-60(TB) leukemia): 1860 nM | TGI (HL-60(TB) leukemia): 4770 nM | GI50 (A549 NSCLC): 368 nM | TGI (A549 NSCLC): 2810 nM | GI50 (OVCAR-5 ovarian): 454 nM | TGI (OVCAR-5 ovarian): 3390 nM | GI50 (SK-OV-3 ovarian): 437 nM | TGI (SK-OV-3 ovarian): 1580 nM | GI50 (RPMI-8226 leukemia): 797 nM | TGI (RPMI-8226 leukemia): 3950 nM | GI50 (CAKI-1 renal): 1020 nM | TGI (CAKI-1 renal): 8780 nM | GI50 (HS 578T breast): 2670 nM | TGI (HS 578T breast): 7880 nM | GI50 (SW-620 colon): 1710 nM | TGI (SW-620 colon): 4010 nM | GI50 (NCI-H23 lung): 1720 nM | TGI (NCI-H23 lung): 6310 nM | GI50 (SN12C renal): 442 nM | TGI (SN12C renal): 2850 nM | GI50 (HOP-92 NSCLC): 1360 nM | TGI (HOP-92 NSCLC): 4670 nM | GI50 (U251 CNS): 427 nM | TGI (U251 CNS): 1910 nM | GI50 (786-0 renal): 1810 nM | TGI (786-0 renal): 3910 nM | GI50 (CCRF-CEM leukemia): 710 nM | TGI (CCRF-CEM leukemia): 3840 nM | GI50 (MOLT-4 leukemia): 1510 nM | TGI (MOLT-4 leukemia): 4340 nM | GI50 (HOP-62 NSCLC): 762 nM | TGI (HOP-62 NSCLC): 2170 nM | GI50 (OVCAR-3 ovarian): 444 nM | TGI (OVCAR-3 ovarian): 4300 nM | GI50 (NCI-H460 lung): 457 nM | TGI (NCI-H460 lung): 10100 nM | GI50 (MCF7 breast): 2040 nM | TGI (MCF7 breast): 9630 nM | GI50 (OVCAR-8 ovarian): 745 nM | TGI (OVCAR-8 ovarian): 5570 nM | GI50 (NCI-H522 lung): 335 nM | TGI (NCI-H522 lung): 1630 nM | GI50 (LOX IMVI melanoma): 1500 nM | TGI (LOX IMVI melanoma): 3070 nM | GI50 (M14 melanoma): 972 nM | TGI (M14 melanoma): 3150 nM | GI50 (NCI-H226 lung): 1210 nM | TGI (NCI-H226 lung): 2980 nM | GI50 (HT29 colon): 391 nM | TGI (HT29 colon): 2030 nM | GI50 (DU-145 prostate): 732 nM | TGI (DU-145 prostate): 13000 nM | GI50 (HCT-15 colon): 515 nM | TGI (HCT-15 colon): 2050 nM | GI50 (MALME-3M melanoma): 2130 nM | TGI (MALME-3M melanoma): 6330 nM | GI50 (SF-268 CNS): 1290 nM | TGI (SF-268 CNS): 13000 nM | GI50 (SNB-19 CNS): 732 nM | TGI (SNB-19 CNS): 15400 nM | GI50 (SF-295 CNS): 1920 nM | TGI (SF-295 CNS): 5410 nM | GI50 (SK-MEL-5 melanoma): 481 nM | TGI (SK-MEL-5 melanoma): 1700 nM | GI50 (MDA-MB-435): 1030 nM | TGI (MDA-MB-435): 2880 nM | GI50 (SR leukemia): 1110 nM | TGI (SR leukemia): 3360 nM | GI50 (IGROV1 ovarian): 3200 nM | TGI (IGROV1 ovarian): 16800 nM | GI50 (UACC-257 melanoma): 2020 nM | TGI (UACC-257 melanoma): 5540 nM | GI50 (RXF 393 renal): 882 nM | TGI (RXF 393 renal): 2340 nM | GI50 (NCI/ADR-RES ovarian): 1980 nM | TGI (NCI/ADR-RES ovarian): 11400 nM | GI50 (A498 renal): 663 nM | TGI (A498 renal): 3990 nM | GI50 (BT-549 breast): 2710 nM | TGI (BT-549 breast): 7600 nM | GI50 (T-47D breast): 1410 nM | TGI (T-47D breast): 4730 nM | GI50 (OVCAR-4 ovarian): 2930 nM | TGI (OVCAR-4 ovarian): 14600 nM | GI50 (PC-3 prostate): 495 nM | TGI (PC-3 prostate): 7610 nM | GI50 (HCT-116 colon): 361 nM | TGI (HCT-116 colon): 1520 nM | GI50 (K-562 leukemia): 1280 nM | TGI (K-562 leukemia): 5610 nM | GI50 (SK-MEL-28 melanoma): 1710 nM | TGI (SK-MEL-28 melanoma): 4730 nM | GI50 (COLO 205 colon): 682 nM | TGI (COLO 205 colon): 2180 nM

Reference: PubChem BioAssay (NCI)
